Patent publication US12441757B2, “Platform for screening NAD+ binding proteins in a cellular context” (OREGON HEALTH & SCIENCE UNIVERSITY, priority 2020, dated 2025)

Assays:
PARP-1 [1] = molecular target: T1, PARP-1 (Homo sapiens, UniProt P09874); details: cited from earlier work
T1 construct: Full length His6-PARP-1 and His6-SUMO-PARP-10 proteins we expressed and purified; His6 (N); made in house

PARP-1 [2] = molecular target: T1, PARP-1; assay: In vitro PARP-1 auto-PARylation activity assay; assay type: biochemical; details: dose response; activated DNA, 50 μM NAD^+, anti-ADPr immunoblot
Experimental: FIG. 5. A clickable NAD^+ PAL probe (2-ad-BAD) inhibits PARP-1 and PARP-10 activity in concentration response. (FIG. 5A) 50 nM of recombinant His6-PARP-1 was incubated with 10 μg/mL activated DNA in 100 mM NaCl, 50 mM HEPES [pH 7.4], 4 mM MgCl2, 0.2 mM TCEP for 10 min, then treated with indicated competitor (BAD or the PARP-1 inhibitor NMS-P118) for additional 10 min. 50 μM NAD^+ was then added to initiate auto-PARylation of PARP-1. After 10 min, the reaction was quenched by addition of 4× Laemmli sample buffer and boiling at 95° C. for 5 min. Protein samples were separated by SDS-PAGE, transferred onto nitrocellulose and probed with indicated antibodies. (FIG. 5B) Experiments were performed essentially as in (5A) with the exception that damaged DNA was omitted and the PARP-10 inhibitor ITK6 was used instead of NMS-P118. (FIG. 5C) Densitometry analyses of (5A) and (5B) comparing inhibitory effect of BAD on PARP-1 and PARP-10 auto-ADP-ribosylation. Data are mean±SEM of 3 independent experiments. […]
Samples were run on 10% or 12% acrylamide gels for ˜1 h at 180 V in Mini-PROTEAN Tetra cell (Biorad). […] Band intensities we quantified with ImageJ.

PARP-1 [3] = molecular target: T1, PARP-1; assay: Competition labeling of PARP-1 by 2-ad-BAD; assay type: binding
Text: FIG. 8. Densitometry analyses of FIG. 3A panels (A,B) comparing the inhibitory effect of nucleotides and (B) panels (C,D) comparing inhibitory effect of PARP inhibitors on PARP-1 and PARP-10 labelling by 2-ad-BAD. TAMRA in-gel fluorescence was normalized to Coomassie staining, except for PARP-1 NAD^+ treated samples where relative to control TAMRA signal is reported due to auto-PARylation induced molecular weight shift and therefore not detectable Coomassie signal at PARP-1 molecular weight of ˜110 kDa. Data are mean±SEM of 3 independent experiments.
Treatments. Recombinant PARP-1 (250 nM), PARP-10 (250 nM) or AK1 (500 nM; Novus Biologicals) were diluted in 100 mM NaCl, 50 mM HEPES [pH 7.4], 4 mM MgCl2, 0.2 mM TCEP. PARP-1 reactions also contained 10 μg/mL of activated calf thymus DNA (Sigma-Aldrich D4522), unless otherwise noted. In experiments reported in FIG. 2, the samples were treated with 0.1 μM 2-ad-BAD or ad-olaparib for 10 min. In competition experiments reported in FIG. 3 and Figure S3, samples were first treated with 150 μM of indicated nucleotides for 10 minute and then with 0.3 μM 2-ad-BAD for additional 10 min. All treatments occurred at RT. Samples were then kept in the dark or irradiated for 5 min in the RPR-100 Photochemical Reactor (Rayonet) equipped with 350 nm lamps at 4° C.
Click Chemistry. 25 μL of each sample was mixed with 5 μL of fatty acid free BSA and SDS to give a final Click reaction concentration of 1 mg/mL and 1%, respectively. Click reactions were started by adding 15 μL of PBS based 3× click reaction mix (final 1× concentrations shown): 100 μM Tris[(1-benzyl-1H-1,2,3triazol-4-yl)methyl]amine (TBTA, Click Chemistry Tools), 1 mM CuSO4, 40 μM tetramethylrhodamine (TAMRA)-azide (Click Chemistry Tools), 1 mM Tris(2-carboxyethyl)phosphine hydrochloride (TCEP, Thermo Fisher) and 5% tert-Butyl alcohol to each sample, and let to proceed for 1 h at RT while gently shaking. Reactions were stopped by adding 4× Laemmli sample buffer and boiling at 95° C. for 5 min.
In gel fluorescence and staining. Samples were loaded to 10 or 12% SDS-polyacrylamide gels and run until the dye front left the gel. In-gel fluorescence was detected with ChemiDoc XRS+ (Biorad) using Rhodamine filter and then the gels were stained with Coomassie blue or Silver using standard protocols.

T1 sequence (P09874 whole entry): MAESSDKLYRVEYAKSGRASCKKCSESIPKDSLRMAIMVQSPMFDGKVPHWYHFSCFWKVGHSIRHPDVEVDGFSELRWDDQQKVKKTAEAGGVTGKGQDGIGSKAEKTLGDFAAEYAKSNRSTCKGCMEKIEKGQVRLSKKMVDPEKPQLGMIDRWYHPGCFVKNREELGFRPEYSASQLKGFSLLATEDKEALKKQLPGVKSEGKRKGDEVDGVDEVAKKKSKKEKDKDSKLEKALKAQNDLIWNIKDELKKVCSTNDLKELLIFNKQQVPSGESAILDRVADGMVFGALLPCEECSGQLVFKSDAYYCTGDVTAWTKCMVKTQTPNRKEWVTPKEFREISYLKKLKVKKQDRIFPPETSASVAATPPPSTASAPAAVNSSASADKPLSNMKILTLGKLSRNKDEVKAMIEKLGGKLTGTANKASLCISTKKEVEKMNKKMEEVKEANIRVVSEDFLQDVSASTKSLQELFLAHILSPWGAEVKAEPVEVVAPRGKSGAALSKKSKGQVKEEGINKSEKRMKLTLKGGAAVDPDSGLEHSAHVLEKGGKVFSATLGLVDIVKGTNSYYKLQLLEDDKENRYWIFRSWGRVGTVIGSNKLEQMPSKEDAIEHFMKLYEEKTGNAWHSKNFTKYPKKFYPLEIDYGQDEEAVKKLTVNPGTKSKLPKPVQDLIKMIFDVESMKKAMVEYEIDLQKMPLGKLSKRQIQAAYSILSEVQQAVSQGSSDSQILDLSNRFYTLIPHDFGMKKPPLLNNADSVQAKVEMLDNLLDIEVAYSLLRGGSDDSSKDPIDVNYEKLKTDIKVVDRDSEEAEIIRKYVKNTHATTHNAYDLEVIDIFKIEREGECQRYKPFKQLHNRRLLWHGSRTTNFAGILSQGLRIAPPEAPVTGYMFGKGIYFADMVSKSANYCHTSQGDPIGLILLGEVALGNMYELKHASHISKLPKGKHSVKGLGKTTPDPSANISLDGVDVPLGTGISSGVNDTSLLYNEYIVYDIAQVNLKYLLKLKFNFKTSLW

inhibition of PARP-1 auto-PARylation (PARP-1 [2]): inhibited
block of 2-ad-BAD labeling of PARP-1 by nucleotides (PARP-1 [3]; 150 μM nucleotide, 0.3 μM 2-ad-BAD): reduced
Structure (SMILES): NC(=O)c1cccc([C@@H]2O[C@H](COP(=O)(O)OP(=O)(O)OC[C@H]3O[C@@H](n4cnc5c(N)ncnc54)[C@H](O)[C@@H]3O)[C@@H](O)[C@H]2O)c1 [BAD, benzamide adenine dinucleotide]
DNA dependence of binding to PARP-1 (PARP-1 [1]): DNA-dependent
binding to PARP-1 and inhibition of its enzymatic activity (PARP-1 [1]): binds to PARP-1 and inhibits its enzymatic activity
dose-dependent block of 2-ad-BAD labeling of PARP-1 (PARP-1 [3]; competitor dose series): dose-dependently block the labeling of PARP-1
